This note sets out measurements from US20250353891A1 (MEDIMMUNE LIMITED, priority 2022, published 2025).

Starred links: 1 amine or outer side, 2 acyl side, 3 side chain; linkers in the order of their positions; H or OH if unused. Non-standard residues stand in square brackets, D forms with d. Residues, ends and D or L forms follow the SMILES beside them. Groups on a side chain read outwards from the residue. *: point of attachment. C20 diacid = O=C(O)CCCCCCCCCCCCCCCCCCC(=O)*; C18 diacid = O=C(O)CCCCCCCCCCCCCCCCC(=O)*; γGlu = O=C(O)[C@H](CCC(=O)[*:2])N[*:1]; αMeF = C[C@](N)(Cc1ccccc1)C(=O)O; AEEA = NCCOCCOCC(=O)O; Aib = CC(C)(N)C(=O)O

Assay [1] has as its target human glucagon receptor (hGCGR) (Homo sapiens, UniProt P47871). The assay can be described thus: cAMP production (HTRF) in CHO cells expressing hGCGR. It counts as cell-based. More on the design: expressed in transfected cells. The conditions noted are these: Table 7, peptides modified at position 20; cAMP in CHO hGCGR cells; geometric mean; read-out: hGluc-R EC50. The gist of the method: (§1)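 Read-out: HTRF cAMP (anti-cAMP cryptate donor, cAMP-d2 acceptor in conjugate/lysis buffer), converted to % Delta F and fitted by 4-parameter logistic for EC50. Cell densities were 1×10^5 cells/mL (hGLP-1R) or 2×10^5 cells/mL (hGCGR). Stimulation lasted 30 min at room temperature.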
Background: cAMP levels reflect the balance of adenylyl cyclase and phosphodiesterase activity.

For assay [2], the target named is human GLP-1 receptor (hGLP-1R) (Homo sapiens, UniProt P43220). Nature of the assay: cAMP production (HTRF) in CHO cells expressing hGLP-1R. It counts as cell-based. More on the design: expressed in transfected cells. Conditions: for EC50: Table 7, peptides modified at position 20, cAMP in CHO hGLP-1R cells, geometric mean, read-out: hGLP-1R EC50; for % Relative Potency Ratio: Table 7, % GLP-1R activity relative to GLP-1 / % GlucR activity relative to glucagon. The gist of the method:
as §1

human GLP-1 receptor (hGLP-1R), sequence (P43220 24-463): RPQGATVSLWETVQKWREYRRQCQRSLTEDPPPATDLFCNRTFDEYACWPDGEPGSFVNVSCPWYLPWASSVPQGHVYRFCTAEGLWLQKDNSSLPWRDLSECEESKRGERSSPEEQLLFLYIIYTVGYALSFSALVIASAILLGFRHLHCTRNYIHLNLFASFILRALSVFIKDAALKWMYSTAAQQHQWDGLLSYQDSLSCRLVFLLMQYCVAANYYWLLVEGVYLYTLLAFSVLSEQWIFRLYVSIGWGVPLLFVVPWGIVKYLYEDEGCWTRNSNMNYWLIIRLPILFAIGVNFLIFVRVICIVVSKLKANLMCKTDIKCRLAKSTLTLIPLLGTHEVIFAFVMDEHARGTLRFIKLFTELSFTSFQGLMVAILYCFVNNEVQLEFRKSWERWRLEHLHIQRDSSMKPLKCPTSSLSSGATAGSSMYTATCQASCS
human glucagon receptor (hGCGR), sequence (P47871 26-477): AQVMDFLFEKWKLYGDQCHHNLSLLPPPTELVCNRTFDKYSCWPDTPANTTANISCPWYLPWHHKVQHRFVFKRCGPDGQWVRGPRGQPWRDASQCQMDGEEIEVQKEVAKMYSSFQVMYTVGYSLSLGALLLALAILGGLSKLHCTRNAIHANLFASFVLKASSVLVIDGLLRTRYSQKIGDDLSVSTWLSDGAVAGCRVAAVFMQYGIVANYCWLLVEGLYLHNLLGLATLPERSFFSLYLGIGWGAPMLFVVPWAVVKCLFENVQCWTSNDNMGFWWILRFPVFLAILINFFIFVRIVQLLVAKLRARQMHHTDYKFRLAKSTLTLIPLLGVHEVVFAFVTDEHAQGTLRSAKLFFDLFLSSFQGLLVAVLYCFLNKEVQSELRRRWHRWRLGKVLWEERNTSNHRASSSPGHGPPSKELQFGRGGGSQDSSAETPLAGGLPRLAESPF

Broadly, the EC50 is the concentration needed to bring the measured effect to its halfway point. With `CC[C@H](C)[C@H](NC(=O)C(C)(C)NC(=O)[C@H](CCC(N)=O)NC(=O)[C@@H](NC(=O)[C@](C)(Cc1ccccc1)NC(=O)[C@H](CC(=O)O)NC(=O)[C@H](CCCCNC(=O)COCCOCCNC(=O)COCCOCCNC(=O)CC[C@H](NC(=O)CCCCCCCCCCCCCCCCC(=O)O)C(=O)O)NC(=O)[C@H](C)NC(=O)[C@H](C)NC(=O)[C@H](CCCNC(=N)N)NC(=O)[C@H](CO)NC(=O)[C@H](CC(=O)O)NC(=O)[C@H](CC(C)C)NC(=O)[C@](C)(Cc1ccccc1)NC(=O)[C@H](CCCCN)NC(=O)[C@H](CO)NC(=O)[C@@H](NC(=O)[C@H](CC(=O)O)NC(=O)[C@H](CO)NC(=O)[C@@H](NC(=O)[C@](C)(Cc1ccccc1)NC(=O)[C@H](CO)NC(=O)CNC(=O)[C@H](Cc1c[nH]cn1)NC(=O)C(C)(C)NC(=O)[C@@H](N)Cc1c[nH]cn1)[C@@H](C)O)C(C)C)C(C)C)C(=O)N[C@@H](C)C(=O)N[C@@H](CC(N)=O)C(=O)N[C@H](C(=O)O)[C@@H](C)O` [Peptide 303] (H-H[Aib]HGS[αMeF]TSDVSK[αMeF]LDSRAAK([AEEA-AEEA-γGlu-C18 diacid])D[αMeF]VQ[Aib]IANT-OH), the EC50 in assay [1] came to 0.0996 nM. Moreover, in assay [2], the EC50 came to 0.0991 nM and the “% Relative Potency Ratio” value is reported as 2.0.

With `CC[C@H](C)[C@H](NC(=O)C(C)(C)NC(=O)[C@H](CCC(N)=O)NC(=O)[C@@H](NC(=O)[C@](C)(Cc1ccccc1)NC(=O)[C@H](CC(=O)O)NC(=O)[C@H](CCCCNC(=O)COCCOCCNC(=O)COCCOCCNC(=O)CC[C@H](NC(=O)CC[C@H](NC(=O)CCCCCCCCCCCCCCCCCCC(=O)O)C(=O)O)C(=O)O)NC(=O)[C@H](C)NC(=O)[C@H](C)NC(=O)[C@H](CCCNC(=N)N)NC(=O)[C@H](CO)NC(=O)[C@H](CC(=O)O)NC(=O)[C@H](CC(C)C)NC(=O)[C@](C)(Cc1ccccc1)NC(=O)[C@H](CCCCN)NC(=O)[C@H](CO)NC(=O)[C@@H](NC(=O)[C@H](CC(=O)O)NC(=O)[C@H](CO)NC(=O)[C@@H](NC(=O)[C@](C)(Cc1ccccc1)NC(=O)[C@H](CO)NC(=O)CNC(=O)[C@H](Cc1c[nH]cn1)NC(=O)C(C)(C)NC(=O)[C@@H](N)Cc1c[nH]cn1)[C@@H](C)O)C(C)C)C(C)C)C(=O)N[C@@H](C)C(=O)N[C@@H](CC(N)=O)C(=O)N[C@H](C(=O)O)[C@@H](C)O` [Peptide 304] (H-H[Aib]HGS[αMeF]TSDVSK[αMeF]LDSRAAK([AEEA-AEEA-γGlu-γGlu-C20 diacid])D[αMeF]VQ[Aib]IANT-OH), the EC50 in assay [1] is 0.687 nM. Besides, in assay [2], the EC50 was 0.239 nM and the “% Relative Potency Ratio” value amounted to 5.7.

`CC[C@H](C)[C@H](NC(=O)[C@H](Cc1c[nH]c2ccccc12)NC(=O)[C@H](CCC(N)=O)NC(=O)[C@@H](NC(=O)[C@H](Cc1ccccc1)NC(=O)[C@H](CC(=O)O)NC(=O)[C@H](CCCCNC(=O)COCCOCCNC(=O)COCCOCCNC(=O)CC[C@H](NC(=O)CC[C@H](NC(=O)CCCCCCCCCCCCCCCCCCC(=O)O)C(=O)O)C(=O)O)NC(=O)[C@H](C)NC(=O)[C@H](C)NC(=O)[C@H](CCCNC(=N)N)NC(=O)[C@H](CO)NC(=O)[C@H](CC(=O)O)NC(=O)[C@H](CC(C)C)NC(=O)[C@](C)(Cc1ccccc1)NC(=O)[C@H](CCCCN)NC(=O)[C@H](CO)NC(=O)[C@@H](NC(=O)[C@H](CC(=O)O)NC(=O)[C@H](CO)NC(=O)[C@@H](NC(=O)[C@H](Cc1ccccc1)NC(=O)[C@@H](NC(=O)CNC(=O)[C@H](Cc1c[nH]cn1)NC(=O)C(C)(C)NC(=O)[C@@H](N)Cc1c[nH]cn1)[C@@H](C)O)[C@@H](C)O)C(C)C)C(C)C)C(=O)N[C@@H](C)C(=O)N[C@@H](CC(N)=O)C(=O)N[C@H](C(N)=O)[C@@H](C)O` [Peptide 305]: in assay [1], the 50% effective concentration (EC50) amounted to 0.155 nM. For the same compound, in assay [2], the EC50 was found to be 0.211 nM and the “% Relative Potency Ratio” value was 1.5.

For `CC[C@H](C)[C@H](NC(=O)[C@H](Cc1c[nH]c2ccccc12)NC(=O)[C@H](CCC(=O)O)NC(=O)[C@@H](NC(=O)[C@H](Cc1ccccc1)NC(=O)[C@H](CC(=O)O)NC(=O)[C@H](CCCCNC(=O)COCCOCCNC(=O)COCCOCCNC(=O)CC[C@H](NC(=O)CCCCCCCCCCCCCCCCC(=O)O)C(=O)O)NC(=O)[C@H](C)NC(=O)[C@H](C)NC(=O)[C@H](CCCNC(=N)N)NC(=O)[C@H](CO)NC(=O)[C@H](CC(=O)O)NC(=O)[C@H](CC(C)C)NC(=O)[C@](C)(Cc1ccccc1)NC(=O)[C@H](CCCCN)NC(=O)[C@H](CO)NC(=O)[C@@H](NC(=O)[C@H](CC(=O)O)NC(=O)[C@H](CO)NC(=O)[C@@H](NC(=O)[C@H](Cc1ccccc1)NC(=O)[C@@H](NC(=O)CNC(=O)[C@H](CCC(N)=O)NC(=O)C(C)(C)NC(=O)[C@@H](N)Cc1c[nH]cn1)[C@@H](C)O)[C@@H](C)O)C(C)C)C(C)C)C(=O)N[C@@H](C)C(=O)N[C@@H](CC(N)=O)C(=O)N[C@H](C(N)=O)[C@@H](C)O` [Peptide 306], the EC50 in assay [1] stood at 0.775 nM. Moreover, in assay [2], the EC50 worked out at 0.0472 nM and the “% Relative Potency Ratio” value stood at 32.5.

With `CC[C@H](C)[C@H](NC(=O)[C@H](Cc1c[nH]c2ccccc12)NC(=O)[C@H](CCCNC(=N)N)NC(=O)[C@@H](NC(=O)[C@H](Cc1ccccc1)NC(=O)[C@H](CC(=O)O)NC(=O)[C@H](CCCCNC(=O)COCCOCCNC(=O)COCCOCCNC(=O)CC[C@H](NC(=O)CCCCCCCCCCCCCCCCC(=O)O)C(=O)O)NC(=O)[C@H](C)NC(=O)[C@H](C)NC(=O)[C@H](CCCNC(=N)N)NC(=O)[C@H](CO)NC(=O)[C@H](CC(=O)O)NC(=O)[C@H](CC(C)C)NC(=O)[C@](C)(Cc1ccccc1)NC(=O)[C@H](CCCCN)NC(=O)[C@H](CO)NC(=O)[C@@H](NC(=O)[C@H](CC(=O)O)NC(=O)[C@H](CO)NC(=O)[C@@H](NC(=O)[C@H](Cc1ccccc1)NC(=O)[C@@H](NC(=O)CNC(=O)[C@H](CCC(N)=O)NC(=O)C(C)(C)NC(=O)[C@@H](N)Cc1c[nH]cn1)[C@@H](C)O)[C@@H](C)O)C(C)C)C(C)C)C(=O)N[C@@H](C)C(=O)N[C@@H](CC(N)=O)C(=O)N[C@H](C(N)=O)[C@@H](C)O` [Peptide 307], the EC50 in assay [1] is 1.13 nM; in assay [2] it was 0.0222 nM. Also, the “% Relative Potency Ratio” value in assay [2] is recorded as 100.5.

As to `CC[C@H](C)[C@H](NC(=O)[C@H](Cc1c[nH]c2ccccc12)NC(=O)[C@H](CCC(N)=O)NC(=O)[C@@H](NC(=O)[C@H](Cc1ccccc1)NC(=O)[C@H](CC(=O)O)NC(=O)[C@H](CCCCNC(=O)COCCOCCNC(=O)COCCOCCNC(=O)CC[C@H](NC(=O)CCCCCCCCCCCCCCCCC(=O)O)C(=O)O)NC(=O)[C@H](C)NC(=O)[C@H](C)NC(=O)[C@H](CCCNC(=N)N)NC(=O)[C@@H](NC(=O)[C@H](CC(=O)O)NC(=O)[C@H](CC(C)C)NC(=O)[C@](C)(Cc1ccccc1)NC(=O)[C@H](CCCCN)NC(=O)[C@H](CO)NC(=O)[C@@H](NC(=O)[C@H](CC(=O)O)NC(=O)[C@H](CO)NC(=O)[C@@H](NC(=O)[C@H](Cc1ccccc1)NC(=O)[C@@H](NC(=O)CNC(=O)[C@H](CCC(N)=O)NC(=O)C(C)(C)NC(=O)[C@@H](N)Cc1c[nH]cn1)[C@@H](C)O)[C@@H](C)O)C(C)C)[C@@H](C)O)C(C)C)C(=O)N[C@@H](C)C(=O)N[C@@H](CC(N)=O)C(=O)N[C@H](C(N)=O)[C@@H](C)O` [Peptide 308] (H-H[Aib]QGTFTSDVSK[αMeF]LDTRAAK([AEEA-AEEA-γGlu-C18 diacid])DFVQWIANT-NH2; N-terminus assumed), in assay [1], the concentration for a half-maximal effect (EC50) worked out at 1.72 nM. Also, in assay [2], the EC50 is 0.0275 nM and the “% Relative Potency Ratio” value is 123.4.
